Data taken from patent US6984640B1, “Antiparasitic artemisinin derivatives (endoperoxides)” (Bayer Aktiengesellschaft, priority 1998, dated 2006).

Assays:
Type in all cases: cell-based
[1] = tested on: Plasmodium falciparum W2 strain (chloroquine resistant); test: In vitro screening against Plasmodium falciparum, 3H-hypoxanthine incorporation, W2 strain; settings: for ANALYSIS FIELD (AF): bound on the IC values in prescreen format: prescreen 3-dilution assay, 0.00 entered for IC values; for In vitro activity: (IC10) / In vitro activity: IC50 / In vitro activity: IC90: 66 hours incubation
Text: (§1) Two parasite strains—W2 resistant to chloroquine, and D6 sensitive to chloroquine but resistant to mefloquine were used. In Table IV below, the best compounds should show no cross resistance between the two strains.
(§2) The assay relies on incorporation of radiolabelled hypoxanthine by the parasite and inhibition of incorporation is attributed to activity of known or candidate antimalarial drugs. For each assay, proven antimalarials such as chloroquine, mefloquine, quinine, artemisinin and pyrimethamine were used as controls. The incubation period was 66 hours, and the starting parasitemia was 0.2% with 1% hematocrit. The medium was an RPMI-1640 culture with no folate or p-aminobenzoic acid. Albumax rather than 10% normal heat inactivated human plasma was used as, with Albumax, less protein binding is observed, and compounds elicit slightly higher activities in this model. If a compound was submitted with no prior knowledge of activity, it was dissolved directly in dimethyl sulphoxide (DMSO), and diluted 400 fold with complete culture medium. The unknown compound was started at a maximum concentration of 50,000 ng ml^−1 and sequentially diluted 2-fold for 11 times to give a concentration range of […]. These dilutions were performed automatically by a Biomek 1000 Liquid Handling System in 96-well microtiter plates. The diluted drugs were then transferred to test plates, 200 μl of parasitized erythrocytes were added, and incubated at 37° C. in a controlled environment of 5% CO2, 5% O2 and 90% N2. After 42 hours, 25 μl of ^3H-hypoxanthine was added, and the plates incubated for an additional 24 hours. After 66 hours, the plates were frozen at −70° C. to lyse the red cells, and then thawed and harvested onto glass fiber filter mats in a 96-well harvester. The filter mats were then counted in a scintillation counter. For each drug, the concentration response profile was determined and 50%, 90% and 10% inhibitory concentrations (IC50 IC90 and IC10) were determined by a non-linear logistic dose response analysis program.
(§3) A prescreen format can be used wherein a 3-dilution assay may be used to determine activity at high medium or low concentrations. The concentrations were selected as 50,000, 500 and 50 ng ml^−1. These were performed in duplicate on a 96-well format plate with 14 test compounds and one known (standard) compound per plate. The system was automated with a Biomek diluter for mixing and diluting the drugs, and adding drugs and parasites to a test plate. In the prescreen format, if the ANALYSIS FIELD (AP) has a “<”, then the compound was “very active” and the IC values are most likely to be below the last dilution value (in nanograms/ml), which is listed next to AF. In most cases, these compounds were run again at lower starting concentration to determine the true IC value. If the AF has a “>”, then the IC value is greater than the prescreen dilution value; thus “AF>250” means that the IC value is greater than 250 ng ml^−1 and no further screening is carried out. In such cases, values of 0.00 are entered for IC values.

[2] = tested on: Neospora caninum; test: Screening against Neospora caninum cell cultures in vitro (VERO or ED host cells); set-up: key: 0 = no effect monolayer completely destroyed; 1 = weak effect monolayer partly destroyed, parasite clumps can be seen; 2 = full effect monolayer intact, no tachyzoites observable; T = cytotoxic cells are dead, lysed; settings: microscopic evaluation 4 days after treatment
Method: Screening was conducted in 96-well plates (Falcon 3872). A monolayer of host cells (VERO or ED) were placed on a cell culture plate. Non-infected mono-layers of cells were cultured in two 50 ml tissue culture bottles ([…] cell culture area). The cell layer was detached with trypsin-EDTA (5 ml. Gibco 45300-019) in a CO2-culture cupboard at 37° C. After 10 minutes, most of the cells were detached. The cells were transferred with a 5 ml pipette into a 50 ml centrifuge tube (Greiner, B769331) containing about 1 ml warmed fetal calf serum. After centrifugation for 5 minutes at 1500 rpm (Varifuge 3.0, Heraeus), the liquid was removed and the cell pellet suspended in RPMI medium (100 ml, 95% RPMI 1640, 2% FCS, 1% L-glutamine, 1% sodium hydrogen carbonate, 1% penicillin/streptomycin). The cell suspension was pipetted into six 96-well plates at 150 μl per well. The coated cell culture plates were placed in an incubation cupboard at 37° C. under 5% CO2 for 24 hours. The cells were then infected with Neospora caninum tachyzoites at a concentration of 48,000 tachyzoites per well. This was followed by incubation at 37° C. under 5% CO2 for 24 hours.
The test compounds (0.5-1.5 mg) were weighed into 1.5 ml eppendorf vessels and dissolved in 1 ml dimethyl sulphoxide, corresponding to a dilution of about 1×10^−3 g ml^−1. The medium used for further dilution consisted of 87% RPMI 1640, 10% FCS, 1% L-glutamine, 1% sodium hydrogen carbonate, 1% penicillin/streptomycin. In the first screening, concentrations of […], […] and 10^−7 g ml^−1 were used. The diluted preparations were then transferred to the cell culture plates at a volume of 150 μl per well after 24 hour infection with Neospora caninum. For the first row, untreated medium was used; this row contained infected and uninfected cells as controls. The cell plate was incubated at 37° C. under 5% CO2 for 5 days. Microscopic evaluation was conducted 4 days after treatment and 5 days after infection at a magnification of 25×10 in an inverse microscope according to the following evaluation scheme.

[3] = tested on: Eimeria tenella; test: Screening against Eimeria tenella cell cultures in vitro (chick kidney cells); set-up: key: 3 = very active no intact parasites/well; 2 = active 1-6 parasites per well; 1 = weakly active up to 1 intact schizont/optical field of vision; 0 = inactive >1 intact schizont/optical field of vision; T = cytotoxic host cells are dead; settings: day 5 post infection
Method: Cells from kidneys of 19 day old chicks are cultured as monolayers in 96-well plates (Falcon 3872) in a medium of Hanks lactalbumine hydrolysate, 5% fetal calf serum, 1% glutamine and 1% non-essential amino acids. After two days at 42° C. under 5% CO2, the culture was infected with excised sporozoites of Eimeria tenella at about […] per well. Test compounds were dissolved in DKSO and diluted with culture medium to a maximum end concentration of 10 μg ml^−1. The dilution steps were 1:10. On day 5 post infection, the cultures were evaluated under a microscope at 100-fold magnification and the condition of the host cells and the amount of intact schizonts and free merozoites was determined.

[4] = tested on: Plasmodium falciparum D6 strain (chloroquine sensitive); test: In vitro screening against Plasmodium falciparum, 3H-hypoxanthine incorporation, D6 strain; settings: for In vitro activity: (IC10) / In vitro activity: IC50 / In vitro activity: IC90: 66 hours incubation
Text: as §1, §2, §3

Compound	ANALYSIS FIELD (AF): bound on the IC values in prescreen format [1]	Evaluation of effect against Neospora caninum ([2]; Dose 10^−6 g/ml)	Effectiveness rating against Eimeria tenella ([3]; Dose 10^−5 g/ml)	Effectiveness rating against Eimeria tenella ([3]; Dose 10^−7 g/ml)	ANALYSIS FIELD (AF): bound on the IC values in prescreen format ([4]; prescreen 3-dilution assay, 0.00 entered for IC values)	In vitro activity: (IC10) [1]	In vitro activity: IC50 [1]	In vitro activity: IC90 [1]	In vitro activity: (IC10) [4]	In vitro activity: IC50 [4]	In vitro activity: IC90 [4]	Evaluation of effect against Neospora caninum ([2]; Dose 10^−7 g/ml)	Evaluation of effect against Neospora caninum ([2]; Dose 10^−8 g/ml)	Effectiveness rating against Eimeria tenella ([3]; Dose 10^−6 g/ml)	Effectiveness rating against Eimeria tenella ([3]; Dose 10^−8 g/ml)	Evaluation of effect against Neospora caninum ([2]; Dose 10^−5 g/ml)
CC1CCC2C(C)C(NCc3cc(C(F)(F)F)cc(C(F)(F)F)c3)OC3OC4(C)CCC1C32OO4 (centres unmarked) [Example 23]	0.00; 0.00; AF > 250 ng/ml	0	T	0 (0 = inactive >1 intact schizont/optical field of vision)	0.00; 0.00; AF > 250 ng/ml											
COc1cc(OC)c(C2OC3OC4(C)CCC5C(C)CCC(C2C)C35OO4)c(OC)c1 (mixture of isomers) [Example 12]						0.47 ng/mL	0.78 ng/mL	1.32 ng/mL	0.35 ng/mL	0.77 ng/mL	1.70 ng/mL					
COc1cc(OC)c(C2OC3OC4(C)CCC5C(C)CCC(C2C)C35OO4)c(OC)c1 (centres unmarked) [Example 44]						0.13 ng/mL	0.3318 ng/mL	0.8168 ng/mL	0.29 ng/mL	0.69 ng/mL	1.67 ng/mL					
CC1CCC2C(C)C(c3ccc(Br)cc3)OC3OC4(C)CCC1C32OO4 (centres unmarked) [Example 38]						0.55 ng/mL	1.23 ng/mL	2.76 ng/mL	0.22 ng/mL	0.90 ng/mL	3.69 ng/mL					
CC1CCC2C(C)C(N3CCOCC3)OC3OC4(C)CCC1C32OO4 (centres unmarked) [Example 25]		1	2 (2 = active 1-6 parasites per well)	1 (1 = weakly active up to 1 intact schizont/optical field of vision)		0.07 ng/mL	0.11 ng/mL	0.17 ng/mL	0.02 ng/mL	0.09 ng/mL	0.35 ng/mL	1	0	1 (1 = weakly active up to 1 intact schizont/optical field of vision)	0 (0 = inactive >1 intact schizont/optical field of vision)	
CCN(CC)C1OC2OC3(C)CCC4C(C)CCC(C1C)C24OO3 (centres unmarked) [Example 26]	0.00; 0.00 AF < 4 ng/ml								5.05 ng/mL	9.05 ng/mL	16.24 ng/mL					
CC1CCC2C(C)C(NCc3ccccc3)OC3OC4(C)CCC1C32OO4 (centres unmarked) [Example 21]		0							0.79 ng/mL	1.77 ng/mL	3.96 ng/mL			0 (0 = inactive >1 intact schizont/optical field of vision)		2
CC(NC1OC2OC3(C)CCC4C(C)CCC(C1C)C24OO3)c1ccccc1 (centres unmarked) [Example 30]		0	T	0 (0 = inactive >1 intact schizont/optical field of vision)					6.74 ng/mL	11.20 ng/mL	18.61 ng/mL			2 (2 = active 1-6 parasites per well)		1
CC1CCC2[C@@H](C)C(=O)OC3O[C@]4(C)CCC1C32OO4 (some centres unmarked) [Artemisinin, artemisinin]			2 (2 = active 1-6 parasites per well)	0 (0 = inactive >1 intact schizont/optical field of vision)										1 (1 = weakly active up to 1 intact schizont/optical field of vision)		0
CC1CCC2C(C)C(F)OC3OC4(C)CCC1C32OO4 (stereo not drawn) [Example 1, 10β-fluoro-10-deoxo-10-dihydroartemisinin]							0.69 ng/mL	0.98 ng/mL		0.74 ng/mL	1.36 ng/mL					
CC1CCC2C(C)C(Nc3ccc(F)cc3)OC3OC4(C)CCC1C32OO4 (centres unmarked) [Example 16]						0.49 ng/mL	0.64 ng/mL	0.84 ng/mL	0.48 ng/mL	0.61 ng/mL	0.78 ng/mL					
COc1ccc(C2O[C@@H]3O[C@@]4(C)CC[C@H]5[C@H](C)CC[C@@H]([C@H]2C)[C@@]35OO4)c(OC)c1 (some centres unmarked) [Example 4, 10-(2′,4′-dimethoxyphenyl)-10-deoxo-10-dihydroartemisinin]						0.40 ng/mL	0.84 ng/mL	1.74 ng/mL	0.52 ng/mL	1.05 ng/mL	2.10 ng/mL					
